Assay results published in US20040029841A1, “Purinergic antagonists for treating depression” (priority 2002, published 2004).

System: brain bioenergetic status
Experiment: In vivo 31P magnetic resonance spectroscopy and T2 relaxation times of the brain (axial slice, bilateral basal ganglia) in healthy individuals taking oral SAMe
Design: species or system human
Method: This lowering was measured as a decrease in the ratio of beta ATP to total ^31P MRS metabolites and detected using magnetic resonance imaging (see, e.g., U.S. Pat. No. 6,258,794, hereby incorporated by reference).
Five healthy men and seven healthy women self-administered 1600 mg of oral SAMe daily. The effect of SAMe on brain bioenergetic status, membrane integrity, and brain transverse relaxation time (T2) was then examined. In vivo ^31P magnetic resonance spectra and relaxation times were acquired, at baseline and after 14 and 28 days of treatment, from an axial slice (50 mm) encompassing the bilateral basal ganglia using a 1.5-T scanner. […] The changes observed in PCr and β-NTP are consistent with the report that SAMe is involved in the production of creatine, which in turn is phosphorylated to PCr at the expense of β-NTP (Braissant et al., Brain Res. Mol. Brain Res. 2001, 86:193-201).
As changes in T2 relaxation times are inversely related to alterations in steady state blood flow, the decrease in T2 observed in women corresponds to a 3.8% increase in cerebral blood flow.

In the case of C[S+](CC[C@H](N)C(=O)O)C[C@H]1O[C@@H](n2cnc3c(N)ncnc32)[C@H](O)[C@@H]1O (some centres unmarked) [SAMe, S-adenosylmethionine], the “circulating levels of ATP (ratio of beta ATP to total 31P MRS metabolites)” value (healthy individuals, on average, magnetic resonance) is reported as “lowering of circulating levels of ATP”, the “mole percent concentrations of phosphocreatine (PCr)” value (healthy men and women, 1600 mg oral SAMe daily, 14 and 28 days of treatment vs baseline, 31P MRS, basal ganglia slice) is reported as “significantly higher than at baseline” and the “mole percent beta nucleoside triphosphate (β-NTP) levels, predominantly adenosine triphosphate in the brain” value (healthy men and women, 1600 mg oral SAMe daily, after treatment vs baseline, 31P MRS, FIG. 1) is reported as “decreased significantly”. For the same compound, the “brain transverse relaxation time (T2)” value (women vs men at the end of the treatment regimen, 1600 mg oral SAMe daily) was “significantly lower T2 values than men” and the “increase in cerebral blood flow” value (women, worked out from the decrease in T2 relaxation time) was 3.8%.
